Molecules are shown by their SMILES.

In assay [1] the test system is Truncated N-terminal huntington 150 Q-EGFP-Neuron 2a cells. Kind of assay: Measurement of x-Fold (polyglutamine aggregation inhibitory activity). The assay is classed as cell-based. As to the method:
In the present invention, the polyglutamine aggregation inhibitory activity (x-Fold) can be measured, for example, by the method described in the Example.
The number of the aggregated cells, and the total number of cells were counted by Array Scan V T1 (manufactured by Cellomics, Pittuburg, USA), and the ratio of the aggregated cells to the total number of cells was determined (x-Fold). […]

In the next assay the test system is transglutaminase (TGase). The experiment in a line: Measurement of TG (TGase inhibitory activity, monodansyl cadaverine / N,N-dimethylcasein fluorescence, FDSS 3000). The assay is classed as biochemical. The essentials: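 Compound (1 μL of 10 mM stock) added to 0.1 mL reaction: 100 mM HEPES-NaOH pH 7.5, 1 mM CaCl2, 20 μM monodansyl cadaverine, 0.05 mg/mL N,N-dimethylcasein, 5 μg/mL TGase. Rate of fluorescence change at 340 nm measured; DMSO control set to 100; TG50 is the concentration halving activity.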

[2] abbreviates: ratio of aggregated cells to total number of cells, compound 20 μM, 20 hr, almost 1 without compound, smaller = stronger inhibition.
Setting [3] is: TGase activity with compound (10 mM, 1 μL in 0.1 ml enzyme reaction solution), DMSO control taken as 100.
Setting [4] is: polyglutamine aggregation inhibitory activity, Table 1.
Where [5] appears, read: TGase inhibitory activity value, Table 1.

For `FC(F)(F)c1ccc(C(OB(c2ccccc2)c2ccc(COCc3ccc(B(OC(c4ccc(C(F)(F)F)cc4)c4ccccn4)c4ccccc4)cc3)cc2)c2ccccn2)cc1` (stereo not drawn) [Example 138, bis(2-pyridyl-4-trifluoromethylphenylmethoxyphenylboryl 4-benzyl)ether], the x-Fold in assay [1] (setting [2]) was 0.99. Moreover, the “TGase activity remaining (% of DMSO control = 100)” value in the assay with transglutaminase (TGase) (setting [3]) worked out at 96.
On to `Cc1cc(B(O)c2ccc(COCc3ccc(B(O)c4ccc(Cl)c(C)c4)cc3)cc2)ccc1Cl` [Example 139, bis(4-chloro-3-methylphenylhydroxyboryl 4-benzyl)ether], for which the x-Fold in assay [1] (polyglutamine aggregation inhibitory activity, Table 1, listed as 611) amounted to 0.88; in assay [1] (setting [2]) it was 0.88. In addition, the “TGase activity remaining (% of DMSO control = 100)” value in the assay with transglutaminase (TGase) (setting [3]) was found to be 122; in the assay on transglutaminase (TGase) (TGase inhibitory activity value, Table 1, listed as 611), 122.
Consider `OB(c1ccccc1)c1ccc(-c2ccc(B(O)c3ccccc3)cc2)cc1` [Example 140, 4,4′-phenylhydroxyboryl 4-biphenyl], for which the x-Fold in assay [1] (setting [4]) and in assay [1] (setting [2]) was 0.85 in each case. Moreover, the “TGase activity remaining (% of DMSO control = 100)” value in the assay with transglutaminase (TGase) (setting [3]) and in the assay on transglutaminase (TGase) (setting [5]) was −72 in each case.
Regarding `OB(c1ccc(COCc2ccc(B(O)c3cccc4ccccc34)cc2)cc1)c1cccc2ccccc12` [Example 141, bis(4,4′-(1-naphthylhydroxyboryl)benzyl)ether], the x-Fold in assay [1] (setting [4]) and in assay [1] (setting [2]) was 0.92 throughout. Besides, the “TGase activity remaining (% of DMSO control = 100)” value in the assay on transglutaminase (TGase) (setting [3]) and with transglutaminase (TGase) (setting [5]) was 97 each time.
Take `OB(c1ccc(F)cc1)c1ccc(COCc2ccc(B(O)c3ccc(F)cc3)cc2)cc1` [Example 142, bis(4-fluorophenylhydroxyboryl 4-benzyl)ether]: the x-Fold in assay [1] (setting [4]) and in assay [1] (setting [2]) was 0.24 each time. Moreover, the “TGase activity remaining (% of DMSO control = 100)” value with transglutaminase (TGase) (setting [3]) and in the assay with transglutaminase (TGase) (setting [5]) was 88 in each case.
Consider `OB(c1ccc(COCc2ccc(B(O)c3ccc(C(F)(F)F)cc3)cc2)cc1)c1ccc(C(F)(F)F)cc1` [Example 143, bis(4-trifluoromethylphenylhydroxyboryl 4-benzyl)ether], for which the x-Fold in assay [1] (setting [4]) and in assay [1] (setting [2]) was 0.90 each time. In addition, the “TGase activity remaining (% of DMSO control = 100)” value in the assay on transglutaminase (TGase) (setting [3]) and with transglutaminase (TGase) (setting [5]) was 118 throughout.
Regarding `Cc1ccc(B(O)c2ccc(COCc3ccc(B(O)c4ccc(C)c(Cl)c4)cc3)cc2)cc1Cl` [Example 144, bis(3-chloro-4-methylphenylhydroxyboryl 4-benzyl)ether], the x-Fold in assay [1] (setting [2]) stood at 0.87. The “TGase activity remaining (% of DMSO control = 100)” value with transglutaminase (TGase) (setting [3]) was determined as 99.
Take `OB(O)c1ccc(F)c(Cl)c1` [Example 145, (3-chloro-4-fluorophenyl)boronic acid]: the x-Fold in assay [1] (setting [4]) and in assay [1] (setting [2]) was 0.91 each time. The “TGase activity remaining (% of DMSO control = 100)” value in the assay with transglutaminase (TGase) (setting [3]) and in the assay on transglutaminase (TGase) (setting [5]) was 97 in each case.
For the compound `Cc1cc(B(OCCN)c2ccccc2)ccc1B(OCCN)c1ccccc1` [Example 146, 1,4-bis(phenyl-2-aminoethoxyboryl) 2-methylbenzene], the x-Fold in assay [1] (setting [4]) and in assay [1] (setting [2]) was 1.02 throughout. Moreover, the “TGase activity remaining (% of DMSO control = 100)” value with transglutaminase (TGase) (setting [3]) and in the assay on transglutaminase (TGase) (setting [5]) was 91 throughout.
On to `NCCOB(c1ccccc1)c1ccccc1COCc1ccccc1B(OCCN)c1ccccc1` [Example 148, bis(2,2′-(phenyl-2-aminoethoxyboryl)benzyl)ether], for which the x-Fold in assay [1] (setting [4]) and in assay [1] (setting [2]) was 1.00 throughout. Moreover, the “TGase activity remaining (% of DMSO control = 100)” value with transglutaminase (TGase) (setting [3]) and in the assay with transglutaminase (TGase) (setting [5]) was 68 each time.
As to `FC(F)(F)c1ccc(C(OB(c2ccccc2)c2ccc(COCc3ccc(B(OC(c4ccc(C(F)(F)F)cc4)c4ccccn4)c4ccccc4)cc3)cc2)c2ccccn2)cc1` (stereo not drawn) [Example 149, 4,4′-di((phenyl 1-(pyridin-2-yl)-1-trifluoromethylphenylmethoxyboryl)benzyl)ether], in assay [1] (setting [2]), the x-Fold is 0.99. For the same compound, the “TGase activity remaining (% of DMSO control = 100)” value with transglutaminase (TGase) (setting [3]) worked out at 96.
`Nc1ccccc1SB(c1ccccc1)c1ccccc1` [Example 150, diphenyl-2-aminophenylthioborane]: the x-Fold in assay [1] (setting [4]) and in assay [1] (setting [2]) was 0 in each case. The “TGase activity remaining (% of DMSO control = 100)” value in the assay on transglutaminase (TGase) (setting [3]) and in the assay on transglutaminase (TGase) (setting [5]) was 2 throughout.
Regarding `NCCSB(c1ccccc1)c1ccccc1` [Example 151, 2-aminoethylthiodiphenylborane], the x-Fold in assay [1] (setting [4]) and in assay [1] (setting [2]) was 0.87 each time. For the same compound, the “TGase activity remaining (% of DMSO control = 100)” value with transglutaminase (TGase) (setting [3]) and in the assay with transglutaminase (TGase) (setting [5]) was 33 in each case.
Turning to `CN(C)CCOB(c1ccccc1)c1ccc(COCc2ccc(B(OCCN(C)C)c3ccccc3)cc2)cc1` [Example 152, di(4,4′-phenyldimethylaminoethoxyboryl)benzylether], the x-Fold was 1.07 in assay [1] (polyglutamine aggregation inhibitory activity, Table 1, listed as 1073) and 1.07 in assay [1] (setting [2]). Also, the “TGase activity remaining (% of DMSO control = 100)” value in the assay with transglutaminase (TGase) (TGase inhibitory activity value, Table 1, listed as 1073) was found to be 54.
As to `NCCNCCOB(c1ccccc1)c1ccccc1` [Example 154, diphenyl 2-aminoethylaminoethyl borinate], the figures for the x-Fold in assay [1] (setting [4]) and in assay [1] (setting [2]) were 0.96- and 0.96, respectively. Also, the “TGase activity remaining (% of DMSO control = 100)” value in the assay with transglutaminase (TGase) (setting [3]) and in the assay on transglutaminase (TGase) (setting [5]) was 105 in each case.
As for `FC(F)(F)c1ccc(B(OCc2ccccn2)c2ccc(C(F)(F)F)cc2)cc1` [Example 155, di(trifluoromethylphenyl) 2-pyridinomethylborinate], the x-Fold in assay [1] (setting [2]) is recorded as 1.02. For the same compound, the “TGase activity remaining (% of DMSO control = 100)” value with transglutaminase (TGase) (setting [3]) stood at 100.
With `CCCCB(CCCC)OC(=O)C(C)N` (stereo not drawn) [Example 159, dibutyl(alanine-O,N)borane], the x-Fold in assay [1] (setting [4]) and in assay [1] (setting [2]) was 0.96 throughout. In addition, the “TGase activity remaining (% of DMSO control = 100)” value in the assay on transglutaminase (TGase) (setting [3]) and in the assay with transglutaminase (TGase) (setting [5]) was 102 in each case.
Consider `Cc1ccc(Cl)cc1B(OC(=O)C(N)CCCNC(N)=O)c1cc(Cl)ccc1C` (stereo not drawn) [Example 160, di(3-chloro-6-methyl-phenyl)(citrullinate-O,N)borane], for which the x-Fold in assay [1] (setting [4]) and in assay [1] (setting [2]) was 1.02 throughout. In addition, the “TGase activity remaining (% of DMSO control = 100)” value in the assay on transglutaminase (TGase) (setting [3]) and with transglutaminase (TGase) (setting [5]) was 88 throughout.
Consider `Cc1ccc(B(OCC2CCCCN2C)c2ccc(C)c(Cl)c2)cc1Cl` (stereo not drawn) [Example 163, di(3-chloro-4-methylphenyl)N-methylpiperidinomethylborinate], for which, in assay [1] (setting [2]), the x-Fold is on record as 1.00. Further, the “TGase activity remaining (% of DMSO control = 100)” value in the assay with transglutaminase (TGase) (setting [3]) is on record as 109.
Consider `COCOCc1ccc(B(OCCN(C)C)c2ccc(Oc3ccc(B(OCCN(C)C)c4ccccc4)cc3)cc2)cc1` [Example 167, (4-(phenyl-dimethylaminoethoxyboryl)phenyl)-(4′-(methoxymethoxymethylphenyl-dimethylaminoethoxyboryl)phenyl)ether], for which the x-Fold in assay [1] (setting [4]) and in assay [1] (setting [2]) was 0.71 each time. Moreover, the “TGase activity remaining (% of DMSO control = 100)” value with transglutaminase (TGase) (setting [3]) and with transglutaminase (TGase) (setting [5]) was 21 each time.

The values above are taken from US8853424B2 (Japan Science and Technology Agency, priority 2008, dated 2014).
